In the SangsterLogP compilation:

Key:
[1] = not given; remark: listed apart in the source
[2] = method code SF-RC, from PMID: 892676
[3] = method code SF-RC, from Bracha, P.; O'Brien, D. (1966). The relation between physical properties and uptake of insecticides by eggs of the large milkweed bug. J Econ Entomol, 59(5)1255-1264.
[4] = method code SF-GLC, from DOI: 10.1002/etc.5620080702
[5] = not given; remark: listed apart in the source
[6] = method code SF-AS, from DOI: 10.1021/jm00384a018, PMID: 3806586
[7] = method code SF-AS, from DOI: 10.1021/jm00001a010, PMID: 7837239; details: pH 7.0
[8] = from Maeno, S., Miura, I., Masuda, K., & Nagata, T. (1990). Mepanipyrim(KIF-3535), a new pyrimidine fungicide. In Brighton Crop Protection Conference, Pests and Diseases - 1990 (Vol. 2, pp. 415-422). …
[9] = not given; remark: listed apart in the source
[10] = not given; remark: listed apart in the source
[11] = not given; remark: listed apart in the source
[12] = not given; remark: listed apart in the source
[13] = method code SF-AS, from DOI: 10.1155/2011/965826, PMID: 22295208
[14] = not given; remark: listed apart in the source
[15] = method code SF, from Kim, K.; Kim, J.; Kim, Y. (1997). Study on physicochemical properties of pesticides. II. Hanguk Nonghwa Hakhoe Chi, 40(1)76-79.
[16] = method code SF-AS, from Lippold, B.; Lichey, J. (1984). Transport of drugs through lipophilic polymer membranes. II. Influence of the partition and diffusion coefficients. Acta pharmaceutica technologica, 30(2)140-154.
[17] = not given; remark: listed apart in the source
[18] = method code SF, from DOI: 10.1016/0223-5234(96)89550-x
[19] = method code SF-AS, from DOI: 10.1211/0022357011776199, PMID: 11428660; details: pH 7.4
[20] = not given; remark: listed apart in the source
[21] = method code SF-RC, from DOI: 10.1007/bf00263256, PMID: 6394334
[22] = not given; remark: listed apart in the source
[23] = method code SF-GLC, from DOI: 10.1016/s0380-1330(82)71969-0
[24] = method code SF-RC, from PMID: 7826467
[25] = method code SF-MB, from DOI: 10.1016/0378-5173(83)90017-0; details: pH 3.5
[26] = method code SF-HPLC, from DOI: 10.1016/0378-5173(95)00102-o
[27] = method code SF-RC, from DOI: 10.1002/syn.20147; details: pH 7.4
[28] = method code SF-AS, from DOI: 10.1584/jpestics.8.69
[29] = method code SF-AS, from DOI: 10.1081/jlc-100104900; details: pH 1.0
[30] = not given; remark: listed apart in the source
[31] = method code SF-RC, from DOI: 10.1016/s0968-0896(99)00108-x, PMID: 10530922; details: pH 7.2
[32] = method code SF, from DOI: 10.1248/cpb.18.708; details: pH 6.4
[33] = method code SF, from DOI: 10.1016/0048-3575(89)90162-4
[34] = method code SF, from DOI: 10.1023/a:1007583422634, PMID: 11028945; details: pH 7.4
[35] = method code SF, from DOI: 10.1016/s0021-9673(00)89463-7; details: pH 2.4
[36] = method code SF-HPLC, from DOI: 10.1023/a:1015968113838, PMID: 3247280; details: pH 7.4
[37] = not given; remark: listed apart in the source
[38] = method code SF-HPLC, from DOI: 10.1021/je049947x
[39] = not given; remark: listed apart in the source
[40] = method code SF-HPLC, from DOI: 10.1002/etc.5620170216
[41] = method code SF-RC, from DOI: 10.1016/j.nucmedbio.2009.09.005, PMID: 20447558; details: pH 7.4
[42] = method code SF-RC, from DOI: 10.1016/j.nucmedbio.2009.03.005, PMID: 19647167; details: pH 7.4
[43] = not given; remark: listed apart in the source
[44] = method code SF-AS, from Kofitsekpo, W. (1980). An experimental evaluation of the log P of oxamniquine - a new schistosomicide. Drugs under experimental and clinical research, 6(5)421-426.
[45] = method code SF-HPLC, from PMID: 18557421; details: pH 1.0
[46] = not given; remark: listed apart in the source
[47] = method code SF-GLC, from DOI: 10.1021/es60128a001
[48] = not given; remark: listed apart in the source
[49] = method code SF-SF, from DOI: 10.1016/j.ejps.2010.09.003, PMID: 20854904; details: pH 10.0

Work on `CCCOC(=O)c1ccccc1C(=O)OCCC` yielded a logP of 4.05.
`CCN(CC)CCNC(=O)c1cc(Br)c(N)cc1OC` showed a logP [1] of 2.62.
In the case of `O=C(Nc1ccc(Cl)cc1)Nc1ccc(Cl)c(C(F)(F)F)c1`, the logP [2] is reported as 2.93.
`CNC(=O)Oc1cc(C(C)C)cc(C(C)C)c1` gave a logP [3] of 3.55.
With `Clc1ccc(C2OC2c2ccccc2)cc1` (stereo not given) the logP [4] was 4.54.
With `COc1cc(Cc2cnc(N)nc2N)c(I)c(OC)c1OC` the logP [5] was 1.79.
With `CC(O)C1=CCN(NC(=O)c2ccccc2)CC1` (stereo not given) the logP [6] was 0.04.
In the case of `C=CCn1cnc2c(=O)[nH]c(Nc3ccccc3)nc21`, the logD [7] is reported as 1.75.
Work on `CC#Cc1cc(C)nc(Nc2ccccc2)n1` yielded a logP [8] of 3.42.
In the case of `CC1CCCC(C)N1NC(=O)c1ccc(Cl)c(S(N)(=O)=O)c1` (stereo not given), the logP [9] is reported as 1.18.
Work on `CCCCCCn1c(=O)c2c(ncn2C)n(C)c1=O` yielded a logP [10] of 1.2.
For `Cc1cc(Cc2cc(Cl)ccc2Cl)c(Cl)cc1Cl`, the logP [11] was 6.38.
`O=C(OCc1ccccc1)c1ccc(O)cc1` gave a logP [12] of 3.56.
For `CC(=O)OC[C@H]1O[C@@H](n2cnc(N)nc2=O)[C@H](OC(C)=O)[C@@H]1OC(C)=O`, the logP [13] was -0.61.
With `CCn1cc(C(=O)O)c(=O)c2cc([N+](=O)[O-])c(NCCO)cc21` the logP [14] was 0.98.
`CCOP(=S)(OCC)Oc1cc(C(F)(F)F)nn1-c1ccccc1` gave a logP [15] of 5.24.
`Cc1ccc(Cl)c(OCC(O)CNC(C)(C)C)c1` (stereo not given) gave a logP [16] of 2.8.
With `CCOC(=O)CCCn1c(=O)oc2ccccc2c1=O` the logP [17] was 0.63.
For `O=C(Nc1ccn(C2CSC(CO)O2)c(=O)n1)c1cccnc1` (stereo not given), the logP [18] was 0.84.
Work on `Cc1ncc([N+](=O)[O-])n1CCOC(=O)CN1CCCCC1` yielded a logD [19] of 0.51.
Work on `CCCCCCCCc1ccccc1` yielded a logP [20] of 6.5.
Molecule `CC(=NO)C(C)(C)NCCCNC(C)(C)C(C)=NO` has a logP [21] of 1.76.
Work on `Nc1ccc(C=Cc2ccc(N)cc2S(=O)(=O)O)c(S(=O)(=O)O)c1` yielded a logP [22] of -1.7.
`Clc1ccc(C(c2ccc(Cl)cc2)C(Cl)(Cl)Cl)cc1` showed a logP [23] of 5.1.
For `COc1ccc2c(C)cc(=O)n3c(C)cc1c23`, the logP [24] was 2.84.
With `CCCCCC(=O)N[C@@H]1C(=O)N2[C@@H]1SC(C)(C)[C@@H]2C(=O)O` the logD [25] was 2.37.
In the case of `CCCCCCCCOC(=O)c1cccnc1`, the logP [26] is reported as 4.71.
In the case of `Cc1cc(C#N)cc(C#Cc2csc(C)n2)c1`, the logD [27] is reported as 3.4.
Work on `ClC(Cl)C(c1ccccc1)c1ccccc1` yielded a logP [28] of 4.51.
Molecule `CC(C(=O)O)c1ccc(C(=O)c2ccccc2)s1` (stereo not given) has a logD [29] of 2.86.
With `Clc1ccc(C(c2ccc(Cl)cc2)C(Cl)Cl)cc1` the logP [30] was 5.19.
Work on `CSc1ccc(COCCCc2c[nH]cn2)cc1` yielded a logD [31] of 1.88.
`Cc1cc(C)cc(NS(=O)(=O)c2ccc(N)cc2)c1` showed a logD [32] of 2.52.
Molecule `OC1(c2cc(Cl)ccc2Cl)CCCCC1n1cncn1` (stereo not given) has a logP [33] of 3.24.
Molecule `CCCCCOC(=O)[C@@H](N)Cc1ccc(O)c(O)c1` has a logD [34] of 1.5.
For `O=C(O)c1ccc2oc3ccccc3c(=O)c2c1`, the logD [35] was 3.12.
Molecule `CC(C)(C)C(=O)OCC1OC(n2cc(I)c(=O)[nH]c2=O)CC1O` (stereo not given) has a logD [36] of 1.34.
Molecule `CC(C)Cn1cnc2c(N)nc3ccccc3c21` has a logP [37] of 2.89.
With `Cc1cccc(C)c1N(Cn1cccn1)C(=O)CCl` the logP [38] was 2.22.
For `Cn1ccc2cc(-c3nc4ccc(F)nc4o3)cnc21`, the logP [39] was 2.91.
`c1ccc2cc3ccccc3cc2c1` showed a logP [40] of 4.68.
Molecule `CC(C1CCCCC1)N(C)C(=O)c1ccc[nH]1` (stereo not given) has a logD [41] of 1.48.
`CO/N=C1/C=C(C#Cc2cccc(F)n2)CCC1` showed a logD [42] of 2.11.
With `COc1cccc(N2CCN(CCN(C)C)C2=O)c1` the logP [43] was 1.76.
`CC(C)NCC1CCc2cc(CO)c([N+](=O)[O-])cc2N1` (stereo not given) gave a logP [44] of 2.24.
`COc1c(O)cc2c(c1O)C1OC(CO)C(O)C(O)C1OC2=O` (stereo not given) showed a logD [45] of -1.06.
In the case of `CCNc1ccc(C(=O)OCCN(C)C)cc1`, the logP [46] is reported as 2.62.
In the case of `CCOP(=S)(OCC)SC(CCl)N1C(=O)c2ccccc2C1=O` (stereo not given), the logP [47] is reported as 4.69.
Molecule `COc1ccc(CN2CCNCC2)c(OC)c1OC` has a logP [48] of 1.04.
In the case of `CN1CCN(CCC(=O)c2ccccc2)CC1`, the logD [49] is reported as 1.12.
